For orientation: DC50 means the concentration giving 50% degradation. Lower therefore signals degradation at low concentration. A word on the Dmax: it is the largest share of the target that was removed.

10 compounds from US20240342292A1, “Compounds for the Degradation of EGFR Kinase” (BeiGene Switzerland GmbH, priority 2021, published 2024) can be followed below.

The subject of one assay is Del19/T790M/C797S EGFR. Description: EGFR degradation HTRF assay in H1975-clone #28 (DTC) cells. It is filed as cell-based. The following applies: H1975 # 28 DTC (Del19/T790M/C797S), 16h treatment; for DC50: HTRF; for Dmax (%): maximum percentage of degradation. From the text: (§1) H1975-clone #28(Del19/T790M/C797S, or abbr: DTC), H1975-clone #23(Del19/C797S, or abbr: DC), H1975-clone #25(L858R/T790M/C797S, or abbr: LTC) and H1975-clone #8 (L858R/C797S, or abbr: LC). EGFR-Del19:T790M/C797S, EGFR-Del19/C797S, EGFR-L858R/T790M/C797S and EGFR-L858R/C797S were stably expressed in H1975 cell lines by lentivirus-mediated over-expression, respectively. The EGFR over-expressed cells then underwent knockout, in which the EGFR targeting sgRNA was designed to only target the endogenous EGFR copies and preserve the exogenous EGFR copies. Followed by the knockout, the edited H1975 cells were seeded in 96 well plates at the concentration of […], cultured for about 2 weeks to allow single clones formation. The formed clones were screened by DNA sequencing and whole exon sequencing analysis for the desired edition. H1975-clone #28, H1975-clone #23, H1975-clone #25 and H1975-clone #8 were finally confirmed as homozygous Del19/T790M/C797S EGFR, Dell9/C797S EGFR, L858R/T790M/C797S EGFR and L858R/C797S EGFR clones, respectively.
(§2) H1975-#25, H1975-#28, H1975-#23 and H1975-#8 cells are treated with compounds diluted in 0.2% DMSO cell culture medium on day 2, incubate for 16h, 37° C., 5% CO2. the final concentration of compounds in all assay is start with 10 uM, 5-fold dilution, total 8 doses were included.
(§3) After 16h treatment, add HTRF lysis buffer to each well; seal the plate and incubate 1 hour at room temperature on a plate shaker; Once the cells are lysed, 16 μL of cell lysate are transferred to a PE 384-well HTRF detection plate; 4 μL of pre-mixed HTRF antibodies are added to each well; Cover the plate with a plate sealer, spin 1000 rpm for 1 min, Incubate overnight at room temperature; Read on BMG PheraStar with HTRF protocol (337 nm-665 nm-620 nm).
(§4) The IC50 (DC50) value of a compound can be obtained by fitting the following equation
(§5) Y=Bottom+(TOP−Bottom)/(1+((IC50/X)^hillslope))
(§6) Wherein, X and Y are known values, and IC50, Hillslope, Top and Bottom are the parameters obtained by fitting with software. Y is the inhibition percentage (calculated from the equation), X is the concentration of the compound: IC50 is the concentration of the compound when the 50% inhibition is reached. The smaller the IC50 value is, the stronger the inhibitory ability of the compound is. Vice versa, the higher the IC50 value is, the weaker the ability the inhibitory ability of the compound is: Hillslope represents the slope of the fitted curve, generally around 1*; Bottom represents the minimum value of the curve obtained by data fitting, which is generally 0%±20%; Top represents the maximum value of the curve obtained by data fitting, which is generally 100%±20%. The experimental data were fitted by calculating and analyzing with Dotmatics data analysis software.
A general note: TR-FRET usually uses a lanthanide donor and a delayed reading to cut background.

A further assay has as its target T1, L858R/T790M/C797S EGFR (Homo sapiens, UniProt P00533, C797S/L858R/T790M).
T1 construct: expressed in transfected cells; host or cells: H1975 clone #25 (lentiviral over-expression, endogenous EGFR knocked out by sgRNA)
Description: EGFR degradation HTRF assay in H1975-clone #25 (LTC) cells. The following applies: 16h treatment; for DC50: H1975 # 25-LTC (L858R/T790M/C797S), HTRF; for Dmax: NCI-H1975, H1975 # 25-LTC (L858R/T790M/C797S), maximum percentage of degradation. The assay is classed as cell-based.
Source text: as §1, §2, §3, §4, §5, §6

T1 sequence (P00533 25-1210 T790M/C797S/L858R): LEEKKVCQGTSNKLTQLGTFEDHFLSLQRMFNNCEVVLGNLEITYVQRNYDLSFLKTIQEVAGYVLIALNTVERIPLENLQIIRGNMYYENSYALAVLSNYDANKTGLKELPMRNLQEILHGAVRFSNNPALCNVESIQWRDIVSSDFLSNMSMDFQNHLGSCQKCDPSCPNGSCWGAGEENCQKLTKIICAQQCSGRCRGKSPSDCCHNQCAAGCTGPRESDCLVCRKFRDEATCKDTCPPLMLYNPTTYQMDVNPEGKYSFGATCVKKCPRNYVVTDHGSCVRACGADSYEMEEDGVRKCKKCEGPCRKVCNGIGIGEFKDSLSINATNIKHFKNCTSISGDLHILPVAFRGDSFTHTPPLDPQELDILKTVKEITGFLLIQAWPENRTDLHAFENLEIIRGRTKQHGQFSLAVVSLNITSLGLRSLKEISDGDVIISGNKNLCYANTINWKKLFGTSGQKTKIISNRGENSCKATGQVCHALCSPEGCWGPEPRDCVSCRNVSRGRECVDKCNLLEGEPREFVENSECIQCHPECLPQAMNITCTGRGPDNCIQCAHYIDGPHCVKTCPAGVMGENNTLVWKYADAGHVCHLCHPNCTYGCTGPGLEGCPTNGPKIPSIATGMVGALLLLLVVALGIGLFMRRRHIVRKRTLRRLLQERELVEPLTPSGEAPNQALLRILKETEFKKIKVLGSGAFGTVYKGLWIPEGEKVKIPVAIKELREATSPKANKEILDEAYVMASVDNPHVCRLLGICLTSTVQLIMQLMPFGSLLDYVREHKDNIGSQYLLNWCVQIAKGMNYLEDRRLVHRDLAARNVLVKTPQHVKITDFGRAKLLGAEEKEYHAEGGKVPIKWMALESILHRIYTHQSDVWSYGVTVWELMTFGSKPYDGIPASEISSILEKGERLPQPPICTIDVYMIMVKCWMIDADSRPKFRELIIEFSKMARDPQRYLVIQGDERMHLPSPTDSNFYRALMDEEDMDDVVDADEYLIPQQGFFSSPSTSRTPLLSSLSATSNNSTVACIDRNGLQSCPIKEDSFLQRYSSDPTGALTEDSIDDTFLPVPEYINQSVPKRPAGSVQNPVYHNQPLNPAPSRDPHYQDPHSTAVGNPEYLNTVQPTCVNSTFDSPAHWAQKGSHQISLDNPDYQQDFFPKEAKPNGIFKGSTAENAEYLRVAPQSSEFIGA

Consider `Cc1cc2cc(n1)-c1cnn(C)c1OCCC[C@@H](C)CN1/C(=N/C2=O)Nc2cc(F)c(C(=O)N(C)C3CCN(CCc4cc(F)c([C@H]5CCC(=O)NC5=O)c(F)c4)CC3)cc21` [Example 232, (R,E)-N-(1-(4-((R)-2,6-dioxopiperidin-3-yl)-3,5-difluorophenethyl)piperidin-4-yl)-5^5-fluoro-N,1^1,2^6,7-tetramethyl-3-oxo-5^2,5^3-dihydro-1^1H,5^1H-11-oxa-4-aza-5(2,1)-benzo[d]imidazola-2(2,4)-pyridina-1(4,5)-pyrazolacycloundecaphane-5^6-carboxamide], for which, in the assay with Del19/T790M/C797S EGFR, it took 292 pM to reach half-maximal degradation (DC50) and the “Dmax (%)” value is reported as 82.7%. In addition, on L858R/T790M/C797S EGFR, it took 318 pM to reach half-maximal degradation (DC50) and the Dmax was found to be 92%.

On to `Cc1cc2cc(n1)-c1cnn(C)c1OCCC[C@@H](C)CN1/C(=N/C2=O)Nc2ccc(N3CCN(C4CCN(c5ccc(C6CCC(=O)NC6=O)nc5)CC4)CC3)cc21` (stereo partly drawn) [Example 373, 3-(5-(4-(4-((R,E)-1^1,2^6,7-trimethyl-3-oxo-5^2,5^1-dihydro-1^1H,5^1H-11-oxa-4-aza-5(2,1)-benzo[d]imidazola-2(2,4)-pyridina-1(4,5)-pyrazolacycloundecaphane-5^6-yl)piperazin-1-yl)piperidin-1-yl)pyridin-2-yl)piperidine-2,6-dione], for which, in the assay with Del19/T790M/C797S EGFR, the DC50 was determined as 656 pM and the “Dmax (%)” value was 69.22%. At L858R/T790M/C797S EGFR, it took 470 pM to reach half-maximal degradation (DC50) and the Dmax was determined as 84.9%.

Take `Cc1cc2cc(n1)-c1cnn(C)c1OCCC[C@@H](C)CN1/C(=N/C2=O)Nc2ccc(N3CC(NC4CCN(c5cc(F)c([C@H]6CCC(=O)NC6=O)c(F)c5)CC4)C3)cc21` [Example 454, (R)-3-(2,6-difluoro-4-(4-((1-((R,E)-1^1,2^6,7-trimethyl-3-oxo-5^2,5^3-dihydro-1^1H,5^1H-11-oxa-4-aza-5(2,1)-benzo[d]imidazola-2(2,4)-pyridina-1(4,5)-pyrazolacycloundecaphane-5-yl)azetidin-3-yl)amino)piperidin-1-yl)phenyl)piperidine-2,6-dione]: in the assay with Del19/T790M/C797S EGFR, the DC50 is 765 pM and the “Dmax (%)” value came out at 68.28%. At L858R/T790M/C797S EGFR, the DC50 worked out at 1080 pM and the Dmax was 86%.

Consider `Cc1cc2cc(n1)-c1cnn(C)c1OCCC[C@@H](C)CN1/C(=N/C2=O)Nc2ccc(C3CCN(C(=O)C4CN(c5cc(F)c([C@H]6CCC(=O)NC6=O)c(F)c5)C4)CC3)cc21` [Example 158, (R)-3-(2,6-difluoro-4-(3-(4-((R,E)-1^1,2^6,7-trimethyl-3-oxo-5^2,5-dihydro-1^1H,5^1H-11-oxa-4-aza-5(2, 1)-benzo[d]imidazola-2(2,4)-pyridina-1(4,5)-pyrazolacycloundecaphane-5^6-yl)piperidine-1-carbonyl)azetidin-1-yl)phenyl)piperidine-2,6-dione], for which, in the assay with Del19/T790M/C797S EGFR, the DC50 came to 868 pM and the “Dmax (%)” value is reported as 72.14%. On L858R/T790M/C797S EGFR, this compound came in with a DC50 of 852 pM and a Dmax of 82.2%.

In the case of `Cc1cc2cc(n1)-c1cnn(C)c1OCCC[C@@H](C)CN1/C(=N/C2=O)Nc2ccc(C3CCN(CCc4cc(F)c([C@H]5CCC(=O)NC5=O)c(F)c4)CC3)cc21` [Example 330, (R)-3-(2,6-difluoro-4-(2-(4-((R,E)-1^1,2^6,7-trimethyl-3-oxo-5^2,5^3-dihydro-1^1H,5^1H-11-oxa-4-aza-5(2,1)-benzo[d]imidazola-2(2,4)-pyridina-1(4,5)-pyrazolacycloundecaphane-5^6-yl)piperidin-1-yl)ethyl)phenyl)piperidine-2,6-dione], in the assay with Del19/T790M/C797S EGFR, the DC50 is 633 pM and the “Dmax (%)” value is reported as 66.1%. At L858R/T790M/C797S EGFR, this compound returned a DC50 of 972 pM and a Dmax of 87.1%.

Take `Cc1cc2cc(n1)-c1cnn(C)c1OCCC[C@@H](C)CN1/C(=N/C2=O)Nc2ccc(C(=O)N(C)[C@@H]3CCN(CCc4cc(F)c([C@H]5CCC(=O)NC5=O)c(F)c4)C[C@H]3F)cc21` [Example 346, (R,E)-N—((3R,4R)-1-(4-((R)-2,6-dioxopiperidin-3-yl)-3,5-difluorophenethyl)-3-fluoropiperidin-4-yl)-N,1^1,2^6,7-tetramethyl-3-oxo-5^2,5^3-dihydro-1^1H,5^1H-11-oxa-4-aza-5(2,1)-benzo[d]imidazola-2(2,4)-pyridina-1(4,5)-pyrazolacycloundecaphane-5^6-carboxamide]: in the assay with Del19/T790M/C797S EGFR, the DC50 turned out to be 411 pM and the “Dmax (%)” value is on record as 78.78%. Moreover, at L858R/T790M/C797S EGFR, the DC50 came to 526 pM and the Dmax was 84.8%.

As for `Cc1cc2cc(n1)-c1cnn(C)c1OCCC[C@@H](C)CN1/C(=N/C2=O)Nc2ccc(N3CCN(CCCNc4cc(F)c([C@H]5CCC(=O)NC5=O)c(F)c4)CC3)cc21` [Example 400, (R)-3-(2,6-difluoro-4-((3-(4-((R,E)-1^1,2^6,7-trimethyl-3-oxo-5^2,5^3-dihydro-1^1H,5^1H-11-oxa-4-aza-5(2,1)-benzo[d]imidazola-2(2,4)-pyridina-1(4,5)-pyrazolacycloundecaphane-5^6-yl)piperazin-1-yl)propyl)amino)phenyl)piperidine-2,6-dione], in the assay on Del19/T790M/C797S EGFR, it took 628 pM to reach half-maximal degradation (DC50) and the “Dmax (%)” value came to 79.74%. At L858R/T790M/C797S EGFR, this compound had a DC50 of 915 pM and a Dmax of 89.8%.

Turning to `Cc1cc2cc(n1)-c1cnn(C)c1OCCC[C@@H](C)CN1/C(=N/C2=O)Nc2ccc(C(=O)N(C)C3CCN(C4CN(c5cc(F)c([C@H]6CCC(=O)NC6=O)c(F)c5)C4)CC3)cc21` [Example 290, (R,E)-N-(1-(1-(4-((R)-2,6-dioxopiperidin-3-yl)-3,5-difluorophenyl)azetidin-3-yl)piperidin-4-yl)-N,1′,2^6,7-tetramethyl-3-oxo-5^2,5′-dihydro-1^1H,5^1H-11-oxa-4-aza-5(2,1)-benzo[d]imidazola-2(2,4)-pyridina-1(4,5)-pyrazolacycloundecaphane-5^6-carboxamide], in the assay with Del19/T790M/C797S EGFR, half-maximal degradation (DC50) was put at 640 pM and the “Dmax (%)” value amounted to 80.73%. At L858R/T790M/C797S EGFR, half-maximal degradation (DC50) was put at 644 pM and the Dmax was determined as 89.1%.

As to `Cc1cc2cc(n1)-c1cnn(C)c1OCCC[C@@H](C)CN1/C(=N/C2=O)Nc2ccc(N3CCN(C4CCN(c5cc(F)c([C@H]6CCC(=O)NC6=O)c(F)c5)CC4)C[C@@H]3C)cc21` [Example 383, (R)-3-(2,6-difluoro-4-(4-((S)-3-methyl-4-((R,E)-1^1,2^6,7-trimethyl-3-oxo-5^2,5^3-dihydro-1^1H,5^1H-11-oxa-4-aza-5(2,1)-benzo[d]imidazola-2(2,4)-pyridina-1(4,5)-pyrazolacycloundecaphane-5-yl)piperazin-1-yl)piperidin-1-yl)phenyl)piperidine-2,6-dione], in the assay on Del19/T790M/C797S EGFR, the DC50 amounted to 2190 pM and the “Dmax (%)” value was 73.18%. For the same compound, on L858R/T790M/C797S EGFR, the DC50 is 1340 pM and the Dmax stood at 88.8%.

In the case of `Cc1cc2cc(n1)-c1cnn(C)c1OCCC[C@@H](C)CN1/C(=N/C2=O)Nc2cc(F)c(C3CCN(C(=O)[C@@H]4CCN(c5cc(F)c(C6CCC(=O)NC6=O)c(F)c5)C4)CC3)cc21` (stereo partly drawn) [Example 329, (R)-3-(2,6-difluoro-4-((R)-3-(4-((R,E)-5^5-fluoro-1^1,2^6,7-trimethyl-3-oxo-5^2,5^3-dihydro-1^1H,5^1H-11-oxa-4-aza-5(2,1)-benzo[d]imidazola-2(2,4)-pyridina-1(4,5)-pyrazolacycloundecaphane-5^6-yl)piperidine-1-carbonyl)pyrrolidin-1-yl)phenyl)piperidine-2,6-dione], in the assay on Del19/T790M/C797S EGFR, half-maximal degradation (DC50) was put at 2190 pM and the “Dmax (%)” value stood at 68.61%. For the same compound, on L858R/T790M/C797S EGFR, it took 2970 pM to reach half-maximal degradation (DC50) and the Dmax was 78.7%.
